Results published in patent publication US12371454B2, “Cyclic peptide compound having Kras inhibitory action” (priority 2019, dated 2025).
Starred links: 1 amine or outer side, 2 acyl side, 3 side chain; linkers in the order of their positions; H or OH if unused. Positions of bridges follow the written chain, without caps; N, C: chain ends. Non-standard residues stand in square brackets, D forms with d. Residues, ends and D or L forms follow the SMILES beside them. *: point of attachment. hPhe(3,5-F2-4-CF3) = N[C@@H](CCc1cc(F)c(C(F)(F)F)c(F)c1)C(=O)O; hPhe(3-Cl-4-CF3) = N[C@@H](CCc1ccc(C(F)(F)F)c(Cl)c1)C(=O)O; hPhe(3-F,4-CF3) = N[C@@H](CCc1ccc(C(F)(F)F)c(F)c1)C(=O)O; NMePhe(4-CF3) = CN[C@@H](Cc1ccc(C(F)(F)F)cc1)C(=O)O; NMePhe(2-CF3) = CN[C@@H](Cc1ccccc1C(F)(F)F)C(=O)O; NMePhe(4-Cl) = CN[C@@H](Cc1ccc(Cl)cc1)C(=O)O; NMePhe(4-Me) = CN[C@@H](Cc1ccc(C)cc1)C(=O)O; X11 = CN([C@@H](CCc1cccnc1)C(=O)[*:2])[*:1]; NMedβ3hAla = C[C@H](CC(=O)[*:2])N(C)[*:1]; NMeGly(cPent) = CN[C@H](C(=O)O)C1CCCC1; Phe(3-I) = N[C@@H](Cc1cccc(I)c1)C(=O)O; Pro(4,4-F2) = O=C(O)[C@@H]1CC(F)(F)CN1; NMeCha = CN[C@@H](CC1CCCCC1)C(=O)O; NMeChg = CN[C@H](C(=O)O)C1CCCCC1; NMeI = CC[C@H](C)[C@H](NC)C(=O)O; NMeD = CN[C@@H](CC(=O)O)C(=O)O; NMeL = CN[C@@H](CC(C)C)C(=O)O; NMeNva = CCC[C@H](NC)C(=O)O; NMeV = CN[C@H](C(=O)O)C(C)C; d(β3hA) = C[C@@H](N)CC(=O)O; dPip = O=C(O)[C@H]1CCCCN1; NMeA = CN[C@@H](C)C(=O)O; NMeAib = CNC(C)(C)C(=O)O; Nle = CCCC[C@H](N)C(=O)O; Piperidide = C1CCN(*)CC1; Pyrrolidide = C1CCN(*)C1; Ac5c = NC1(C(=O)O)CCCC1; Aze = O=C(O)[C@@H]1CCN1; Sar = CNCC(=O)O

target: T1, Kras and SOS1 (biotin-tagged human Kras loaded with GDP, His-tagged human SOS1) (Homo sapiens, UniProt P01116, G12D); assay: Protein-protein interaction inhibition between Kras and SOS1 (KrasGl2D-SOS PPI) using AlphaScreen; format: binding; details: AlphaScreen; biotin-tagged human Kras loaded with GDP, His-tagged human SOS1; read-out: KRAS G12D-SOS PPI IC50
T1 construct: made in house; host or cells: E. coli (stated for Kras only)
T1 sequence (P01116 1-188 isoform P01116-2 G12D): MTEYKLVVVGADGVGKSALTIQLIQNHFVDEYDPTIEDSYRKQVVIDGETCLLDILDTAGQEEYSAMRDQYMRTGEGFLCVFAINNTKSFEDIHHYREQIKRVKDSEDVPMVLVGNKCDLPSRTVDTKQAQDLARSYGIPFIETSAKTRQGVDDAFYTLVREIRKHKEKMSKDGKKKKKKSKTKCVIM
Outline: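 Energy transfer from nickel-chelate donor beads bound to His-SOS1 to streptavidin acceptor beads bound to biotin-Kras, expressed in E. coli and loaded with GDP after purification, was monitored. Donors were excited at 680 nm; singlet oxygen reaching acceptors gave emission read at 520-620 nm.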

Point of comparison: CCCC[C@@H]1NC(=O)[C@H](Cc2cccc(I)c2)NC(=O)CN(C)C(=O)[C@H](Cc2ccc(Cl)cc2)N(C)C(=O)CN(C)C(=O)CN(C)C(=O)[C@H]([C@@H](C)CC)NC(=O)[C@H](CC(C)C)N(C)C(=O)C[C@@H](C(=O)N2CCCCC2)N(C)C(=O)[C@H](CC(C)C)NC(=O)[C@H](Cc2ccccc2C(F)(F)F)N(C)C1=O [Compound 813] ([NMeL]I[Sar][Sar][NMePhe(4-Cl)][Sar][Phe(3-I)][Nle][NMePhe(2-CF3)]L[NMeD]-Piperidide; lactam N-11), IC50 69 nM. Against it:
- CC[C@H](C)[C@@H]1NC(=O)[C@H](CC(C)C)N(C)C(=O)C[C@@H](C(=O)N2CCCC2)N(C)C(=O)[C@H](CC(C)C)NC(=O)C(C)(C)N(C)C(=O)[C@H](CC(C)C)NC(=O)[C@H](CCc2ccc(C(F)(F)F)c(F)c2)NC(=O)CN(C)C(=O)[C@H](CC2CCCCC2)N(C)C(=O)CN(C)C(=O)CN(C)C1=O [Compound 312] ([NMeL]I[Sar][Sar][NMeCha][Sar][hPhe(3-F,4-CF3)]L[NMeAib]L[NMeD]-Pyrrolidide; lactam N-11) — 69-fold lower, 1 nM
- CC[C@H](C)[C@@H]1NC(=O)[C@H](CC(C)C)N(C)C(=O)C[C@@H](C)N(C)C(=O)[C@H](CC(C)C)NC(=O)C(C)(C)N(C)C(=O)[C@H](CC(C)C)NC(=O)[C@H](CCc2ccc(C(F)(F)F)c(F)c2)NC(=O)CN(C)C(=O)[C@H](CC2CCCCC2)N(C)C(=O)CN(C)C(=O)[C@@H]2CCN2C1=O [Compound 905] (cyclo([Aze][Sar][NMeCha][Sar][hPhe(3-F,4-CF3)]L[NMeAib]L[NMedβ3hAla][NMeL]I)) — 2.6-fold higher, 180 nM
- CC[C@H](C)[C@@H]1NC(=O)[C@H](CC(C)C)N(C)C(=O)C[C@@H](C(=O)N(C)C)N(C)C(=O)[C@H]([C@@H](C)CC)N(C)C(=O)C2(CCCC2)NC(=O)[C@H](CCc2cccnc2)N(C)C(=O)[C@H](CCc2ccc(C(F)(F)F)c(Cl)c2)NC(=O)CN(C)C(=O)[C@H](Cc2ccc(C)cc2)N(C)C(=O)[C@@H]2CCN2C(=O)[C@H](C)N(C)C1=O [Compound 1886] ([NMeL]I[NMeA][Aze][NMePhe(4-Me)][Sar][hPhe(3-Cl-4-CF3)][X11][Ac5c][NMeI][NMeD]-NMe2; lactam N-11) — 74-fold lower, 0.93 nM
- CC[C@H](C)[C@@H]1NC(=O)[C@H](CC(C)C)N(C)C(=O)C[C@@H](C)N(C)C(=O)[C@H]([C@@H](C)CC)N(C)C(=O)C2(CCCC2)NC(=O)[C@@H]2CC(F)(F)CN2C(=O)[C@H](CCc2ccc(C(F)(F)F)c(Cl)c2)NC(=O)CN(C)C(=O)[C@H](Cc2ccc(C(F)(F)F)cc2)N(C)C(=O)CN(C)C(=O)CN(C)C1=O [Compound 1003] (cyclo([Ac5c][NMeI][NMedβ3hAla][NMeL]I[Sar][Sar][NMePhe(4-CF3)][Sar][hPhe(3-Cl-4-CF3)][Pro(4,4-F2)])) — 8.2-fold lower, 8.4 nM
- CC[C@H](C)[C@@H]1NC(=O)[C@H](C)N(C)C(=O)C[C@@H](C)NC(=O)[C@H](C(C)C)N(C)C(=O)C2(CCCC2)NC(=O)[C@@H]2CCCN2C(=O)[C@H](CCc2ccc(C(F)(F)F)c(Cl)c2)NC(=O)[C@H]2CCCCN2C(=O)[C@H](CC2CCCCC2)N(C)C(=O)[C@@H]2CCN2C(=O)CN(C)C1=O [Compound 267] (cyclo([Ac5c][NMeV][d(β3hA)][NMeA]I[Sar][Aze][NMeCha][dPip][hPhe(3-Cl-4-CF3)]P)) — 1.9-fold higher, 130 nM
- CC[C@H](C)[C@@H]1NC(=O)[C@H](CC(C)C)N(C)C(=O)C[C@@H](C(=O)N2CCCC2)N(C)C(=O)[C@H](C2CCCC2)N(C)C(=O)C2(CCCC2)NC(=O)[C@@H]2CC(F)(F)CN2C(=O)[C@H](CCc2ccc(C(F)(F)F)c(Cl)c2)NC(=O)CN(C)C(=O)[C@H](CC2CCCCC2)N(C)C(=O)CN(C)C(=O)CN(C)C1=O [Compound 1270] ([NMeL]I[Sar][Sar][NMeCha][Sar][hPhe(3-Cl-4-CF3)][Pro(4,4-F2)][Ac5c][NMeGly(cPent)][NMeD]-Pyrrolidide; lactam N-11) — 110-fold lower, 0.61 nM
- CC[C@H](C)[C@@H]1NC(=O)[C@H](CC(C)C)N(C)C(=O)C[C@@H](C)N(C)C(=O)[C@H](CC(C)C)NC(=O)C(C)(C)N(C)C(=O)[C@H](CC(C)C)NC(=O)[C@H](CCc2ccc(C(F)(F)F)c(Cl)c2)NC(=O)CN(C)C(=O)[C@H](Cc2ccc(C(F)(F)F)cc2)N(C)C(=O)[C@@H]2CCN2C(=O)CN(C)C1=O [Compound 1403] (cyclo([Aze][NMePhe(4-CF3)][Sar][hPhe(3-Cl-4-CF3)]L[NMeAib]L[NMedβ3hAla][NMeL]I[Sar])) — 2.2-fold lower, 32 nM
- CCC[C@H]1C(=O)N[C@@H]([C@@H](C)CC)C(=O)N(C)CC(=O)N(C)CC(=O)N(C)[C@@H](CC2CCCCC2)C(=O)N(C)CC(=O)N[C@@H](CCc2cc(F)c(C(F)(F)F)c(F)c2)C(=O)N2CC(F)(F)C[C@H]2C(=O)NC2(CCCC2)C(=O)N(C)[C@@H](C2CCCCC2)C(=O)N(C)[C@H](C(=O)N2CCCC2)CC(=O)N1C [Compound 1160] ([NMeNva]I[Sar][Sar][NMeCha][Sar][hPhe(3,5-F2-4-CF3)][Pro(4,4-F2)][Ac5c][NMeChg][NMeD]-Pyrrolidide; lactam N-11) — 160-fold lower, 0.42 nM
